Measured values as given in US12098148B2, “Therapeutic compounds” (C4X Discovery Limited, priority 2018, dated 2024).
Like-named read-outs stand apart in the source and are kept apart here.

Legend:
[1] = tested on: NQO1 mRNA in BEAS-2B cells; assay: Beas2B NQO1 mRNA cell based assay; set-up: species or system human; details: 24 h compound treatment, increase in NQO1 mRNA vs vehicle (0.1% DMSO), read-out: EC50
How it was run: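 BEAS-2B human bronchial epithelial cells exposed to compound for 24 h at 37 °C, 5% CO2. NQO1 mRNA measured by one-step TaqMan RT-qPCR on unpurified lysates, normalized to β-actin; relative expression by ΔΔCT method.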

[2] = molecular target: T1, human KEAP1 (N-term, residues 321-609) (Homo sapiens, UniProt Q14145); assay: biochemical;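 also: fluorescence polarization competition assay of Kelch domain binding to NRF2, 12-point 1:3 dilution series from 10 µM, read after 1 h at room temperature, floor 10 nM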
[3] = molecular target: T1, human KEAP1 (N-term, residues 321-609)

T1 sequence (Q14145 321-609): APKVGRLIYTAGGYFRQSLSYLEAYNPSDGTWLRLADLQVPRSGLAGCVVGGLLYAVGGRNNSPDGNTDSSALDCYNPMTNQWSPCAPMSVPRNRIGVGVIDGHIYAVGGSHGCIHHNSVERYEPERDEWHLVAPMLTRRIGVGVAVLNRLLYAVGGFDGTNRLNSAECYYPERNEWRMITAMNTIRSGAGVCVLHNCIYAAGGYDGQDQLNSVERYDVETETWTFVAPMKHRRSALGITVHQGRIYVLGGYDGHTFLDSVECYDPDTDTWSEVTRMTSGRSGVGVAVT

Row | Molecule | IC50 [2] [nM] | IC50 [3] [nM] | EC50 ([1]; Homo sapiens, BEAS-2B, 24 h) [nM] | EC50 [1] [nM]
1 | Cn1nnc(COc2ccc(Cl)c3c2[C@@H](CN2CC4(CC4)CC2=O)N(C(=O)[C@@H]2C[C@@H](O)CC[C@]2(C)C(=O)O)CC3)c1C(F)F [Example 220, (1S,2R,4S)-2-((S)-5-chloro-8-((5-(difluoromethyl)-1-methyl-1H-1,2,3-triazol-4-yl)methoxy)-1-((6-oxo-5-azaspiro[2.4]heptan-5-yl)methyl)-1,2,3,4-tetrahydroisoquinoline-2-carbonyl)-4-hydroxy-1-methylcyclohexane-1-carboxylic acid] | 7 | – | 15 | –
2 | (1S,2R)-2-((S)-8- ((2,5-bis (difluoromethyl)-2H- 1,2,3-triazol-4-yl) methoxy)-5-chloro-1 ((2-oxopyrrolidin-1- yl)methyl)-1,2,3,4- tetrahydroisoquinoline- 2-carbonyl)-1- methylcyclohexane-1- carboxylic acid [Example 139] | – | 5.7 | – | 140
3 | (1S,2R)-2-((S)- 8-((1,5-bis (difluoromethyl)- 1H-1,2,3-triazol-4-yl) methoxy)-5-chloro-1- ((2-oxopyrrolidin-1- yl)methyl)-1,2,3,4- tetrahydroisoquinoline- 2-carbonyl)-1- methylcyclohexane- 1-carboxylic acid [Example 193] | – | 7.7 | – | 1.8

The next lines start with results.

Row | IC50 [2] [nM] | IC50 [3] [nM] | Molecule | EC50 ([1]; Homo sapiens, BEAS-2B, 24 h) [nM] | EC50 [1] [nM]
4 | 5 | – | Cn1nnc(COc2ccc(Cl)c3c2[C@@H](CN2CC4(CC4)CC2=O)N(C(=O)[C@@H]2CC[C@H](O)C[C@]2(C)C(=O)O)CC3)c1C(F)F [Example 223, (1S,2R,5S)-2-((S)-5-chloro-8-((5-(difluoromethyl)-1-methyl-1H-1,2,3-triazol-4-yl)methoxy)-1-((6-oxo-5-azaspiro[2.4]heptan-5-yl)methyl)-1,2,3,4-tetrahydroisoquinoline-2-carbonyl)-5-hydroxy-1-methylcyclohexane-1-carboxylic acid] | 15 | –
5 | 5.8 | – | Cn1nnc(COc2ccc(Cl)c3c2[C@@H](CN2CC4(CC4)CC2=O)N(C(=O)[C@@H]2CC[C@@H](O)C[C@]2(C)C(=O)O)CC3)c1C(F)F [Example 224, (1S,2R,5R)-2-((S)-5-chloro-8-((5-(difluoromethyl)-1-methyl-1H-1,2,3-triazol-4-yl)methoxy)-1-((6-oxo-5-azaspiro[2.4]heptan-5-yl)methyl)-1,2,3,4-tetrahydroisoquinoline-2-carbonyl)-5-hydroxy-1-methylcyclohexane-1-carboxylic acid] | 42 | –
6 | 6.5 | – | Cn1nnc(COc2ccc(Cl)c3c2[C@@H](CN2CC4(CC4)CC2=O)N(C(=O)[C@@H]2C[C@H](O)CC[C@]2(C)C(=O)O)CC3)c1C(F)F [Example 225, (1S,2R,4R)-2-((S)-5-chloro-8-((5-(difluoromethyl)-1-methyl-1H-1,2,3-triazol-4-yl)methoxy)-1-((6-oxo-5-azaspiro[2.4]heptan-5-yl)methyl)-1,2,3,4-tetrahydroisoquinoline-2-carbonyl)-4-hydroxy-1-methylcyclohexane-1-carboxylic acid] | 110 | –
7 | 5 | – | Cn1nnc(COc2ccc(Cl)c3c2[C@@H](CN2CC4(CC4)CC2=O)N(C(=O)[C@@H]2CCCO[C@@H]2C(=O)O)CC3)c1C(F)F [Example 226, (2S,3R)-3-((S)-5-chloro-8-((5-(difluoromethyl)-1-methyl-1H-1,2,3-triazol-4-yl)methoxy)-1-((6-oxo-5-azaspiro[2.4]heptan-5-yl)methyl)-1,2,3,4-tetrahydroisoquinoline-2-carbonyl)tetrahydro-2H-pyran-2-carboxylic acid] | 14 | –
